Broadly, the melting point is the temperature of the solid-liquid transition. `COc1ccc(C2=NN(C(C)C)C(=O)[C@H]3CCCC[C@@H]23)cc1OC` (relative stereo) yielded a melting point of 79 to 81 °C.

In turn, `C=C1CC(Cn2cc(C)c(=O)[nH]c2=O)(c2ccc(Cl)cc2)OC1=O` (stereo not drawn) registered a melting point of 188 to 189 °C. As for `COC(=O)NNC(=O)CCCl`, the figure is 129 °C.

`O=C(c1ccc(F)cc1)C1CCN(C(=O)c2ccc([N+](=O)[O-])cc2)CC1` returned a melting point of 168 to 170 °C. For `O=C(Nc1cccc(-c2nnn[nH]2)c1)C(=O)N1CCC(Cc2ccccc2)CC1` the value was 159 to 161 °C; for `CC(=O)N(CCOc1cccc2ccccc12)c1ccc(C(=O)O)cc1`, 182 to 183 °C. `Cc1c(F)c(N2CCC(N)C2)c(Cl)c2c1c(=O)c(C(=O)O)cn2C1CC1` (stereo not drawn) registered a melting point of 124 to 126 °C. `CC(=C1SC(=O)NC1=O)c1ccc(SCCc2ccccc2)cc1` displayed a melting point of 183 to 187 °C.

With `CC(C)(C)OC(=O)N1CCC(c2cn(-c3ccc(F)cc3)c3ccc(C#N)cc23)CC1`, the melting point is 155 °C. For `N#Cc1ccc(N2CCC(CCO)C2)c2ccsc12` (stereo not drawn) the value was 109 to 111 °C; for `CCCC(=O)NC1Cc2ccc(-c3ccc(=O)[nH]n3)cc2C1` (stereo not drawn), 228 to 229 °C; for `c1cc(CN2CCCCC2)cc(OCCCNc2nnc3ccccn23)c1`, 150 to 151 °C. As for `COc1ccc2[nH]c3c(c2c1)CCC(C(=O)O)C3` (stereo not drawn), the figure is 226 to 228 °C.

The compound `Nn1c(=O)c(=O)[nH]c2c(Br)cc(F)cc21` had a melting point of 293 to 295 °C. For `CCOC(=O)Nc1c(C(=O)c2cccc(C)c2)[nH]c2cc(Cl)ccc12` the value was 154 to 157 °C. Consider `O=[N+]([O-])c1ccc(Oc2ccccc2-c2ccccc2Oc2ccc([N+](=O)[O-])cc2)cc1`, for which the melting point turned out to be 158 °C. As for `CN(Cc1ccccc1)c1cc(-c2nc(=O)c3ccccc3s2)ccn1`, the figure is 146 to 147 °C; as for `Cc1ccccc1CN1CCN(C2=NC3(C=CC(=O)C=C3)C(c3ccccc3)=C2)CC1`, 193 °C. For `Cc1nccn1N=Cc1cc(C(C)(C)C)c(O)c(C(C)(C)C)c1` the value was 206 to 207 °C; for `CCCCC1(CCCC)CCc2c(O)cccc2C1O` (stereo not drawn), 82 to 83 °C; for `CCOC(=O)N1C(=S)NC(C)=C(C(=O)OC(C)C)C1c1cccc([N+](=O)[O-])c1` (single isomer, unassigned; (-)), 120 to 122 °C. For `CC(C)(C)c1noc(NS(=O)(=O)c2ccccc2)c1Br` the value was 108 to 109 °C; for `Nc1nnc(-c2ccc3ncn(-c4ccccc4Cl)c3c2)o1`, 254 to 255 °C.

In turn, `CCOC(=O)c1nn(C)c(-c2ccccc2)c1S(N)(=O)=O` showed a melting point of 141 to 144 °C. For `OCCC(=C(c1ccccc1)c1ccc(OCCBr)cc1)c1ccccc1` the value was 133 to 137 °C; for `COc1cc(C(=O)N2Cc3ccc(C(=O)NCc4ccc5c(c4)OCO5)n3Cc3ccccc32)ccc1-c1ccccc1C`, 167 to 168 °C. For `N[C@H]1CCCC[C@H]1Nc1cc2c(cc1F)c(=O)c(C(=O)O)cn2C1CC1` (relative stereo) the value was 270 to 274 °C; for `O=C(Nc1ccc(Oc2ccnc(N3CCC(F)(F)CC3)n2)c2ccccc12)c1cc(F)cc(N2CCCCC2)c1`, 172 to 174 °C; for `c1ccc(CN2CCC(n3cnnc3-c3ccccc3)CC2)cc1`, 111 to 114 °C. As for `OCC1CCC(n2cnc3cc(Cl)c(Cl)cc32)C1` (stereo not drawn), the figure is 142 to 145 °C. Regarding `CC(/C=C/c1sccc1-c1ccc2c(c1)C(C)(C)CCC2(C)C)=C\C(=O)O`, the melting point was 188 to 189 °C. Compound `CC(C)(C)OC(=O)N=C(N)N(CCc1ccc(OCCC2Oc3c(Cl)cc(Cl)cc3N(Cc3cccc(Cl)c3)C2=O)cc1)C(=O)OC(C)(C)C` (stereo not drawn) had a melting point of 115 to 117 °C. As for `Fc1cccnc1C#CCCc1nc2ccccc2o1`, the figure is 86 to 88 °C; as for `COc1ccc(C=CC(=O)c2c(OC)cc(OC)cc2OC(=O)c2ccc(OC)cc2)cc1`, 111 to 112 °C. For `O=S(=O)(Nc1nccnc1OCc1ccccn1)c1cccc(Cl)c1Cl` the value was 167 to 168 °C; for `CC1(C(N)=O)CCC=[N+]1[O-]` (stereo not drawn), 134 to 135 °C; for `C=CC(c1ccc(C(C)C)cc1)c1c(C)c(NC=O)c(C)c(C)c1O` (stereo not drawn), 170 to 171 °C. As for `CC(C)N1CC(C(S)Oc2cccc3cnccc23)OC1=O` (stereo not drawn), the figure is 237 to 239 °C; as for `Clc1cc(Cl)nc(-n2cnc3ccccc32)n1`, 173 to 175 °C; as for `O=C(Cc1ccc(Br)cc1)c1ccc(Cl)cc1Cl`, 69 to 70 °C. The compound `COC(=O)c1c(C)c([N+](=O)[O-])cc2nc(Cl)c(Cl)nc12` registered a melting point of 155 to 157 °C. As for `N#Cc1ccc(N2C(=O)C=C(O)C2Cc2ccccc2)cc1Cl` (stereo not drawn), the figure is 188 to 189 °C; as for `COc1ccc(C(=O)Nc2ccccc2)cc1NS(=O)(=O)c1cccc(Cl)c1`, 197 to 199 °C. For `CN(CCO)c1nc(N)nc(-c2cc(Cl)ccc2Cl)n1` the value was 153 to 155 °C; for `Cc1ccc(Sc2c(O)c3ccc(Cl)cc3[nH]c2=O)cc1`, 245 to 246 °C; for `C[C@@H](n1cnc2c(cnn2-c2ccc(Cl)cc2)c1=O)[C@](O)(Cn1cncn1)c1ccc(F)cc1F`, 237 to 238 °C. For `Cc1[nH]c(C)c(-c2ccc(Oc3ccc(Cl)cc3)cc2)c(=O)c1Cl` the value was 340 to 343 °C. With `COc1nc(C)cc(-n2cncn2)n1`, the melting point lay within 98 to 98.5 °C.

Turning to `CC1CCN(Cc2ccccc2)C1=Nc1ccccc1N1CCOCC1` (stereo not drawn), the melting point lay within 96 to 97 °C. As for `CCOC(=O)C(=O)Nc1cccc(C#N)c1`, the figure is 149 to 150 °C. As for `CC(C)(C)C(=O)OCCOCn1cnc2c(=O)[nH]c(N)nc21`, the figure is 245 to 246 °C. For `O=C(NCCCc1ccncc1)N(CCCC(F)(F)F)CCC12CC3CC(CC(C3)C1)C2` the value was 143 to 145 °C; for `COc1cc(S(N)(=O)=O)cc(C(=O)NC2CCN(CC3CCCCC3)C2)c1OC` (stereo not drawn), 167 °C.

`Cc1cc(C)cc(NCc2ccc3nc(NCC(O)CO)n(Cc4nc(C)ccc4O)c3c2)c1` (stereo not drawn): the melting point is 128 °C. `O=C1NC(C(Cl)(Cl)Cl)Oc2ccccc21` (stereo not drawn) yielded a melting point of 175 to 177 °C. As for `N#Cc1c(Cl)[nH]c(Cl)c1Cl`, the figure is greater than 300 °C. For `CN=C(NC#N)NCCSCc1ccsn1`, the melting point was in the range of 63 to 64 °C. For `O=C1CCC(N2C(=O)c3ccccc3C2=O)CC1` the value was 140 to 142 °C.

`CC(=O)Oc1cc(C(=O)Cc2ccccc2)cc([N+](=O)[O-])c1OC(C)=O` yielded a melting point of 94 to 95 °C. `O=C(Oc1ccccc1)N1CCN2C(=O)OC(c3ccccc3)(c3ccccc3)C2C1` (stereo not drawn) gave a melting point of 189 to 191 °C. `CC(=O)NCCn1c(=O)[nH]c2ccccc21`: the melting point was 153 °C.

`CC(=O)OC(=Cc1ccccc1)c1ccc(OC(C)=O)c(OC(C)=O)c1[N+](=O)[O-]` showed a melting point of 119 to 121 °C. As for `N#CCCN1CCc2c3n(c4ccccc24)C(=O)CCC31` (stereo not drawn), the figure is 156 to 157 °C; as for `CC(=O)OC1CSC(Oc2cncc(Cl)c2)C(OC(C)=O)C1OC(C)=O` (stereo not drawn), 160 °C; as for `Nc1ccc2c(c1)N1CCCN=C1S2`, 197 °C. For `CN(C)CC(=O)NCC#Cc1cnc2c(c1)N(Cc1c(Cl)cccc1Cl)CCN2` the value was greater than 200 °C.

For `CC(C)CNC(=O)C(O)C(CC1CCCCC1)NC(=O)C(Cc1c[nH]cn1)NC(=O)C(CC(=O)N1CCOCC1)Cc1cccc2ccccc12` (mixture of isomers), the melting point lay within 119 to 125 °C. Compound `C#CC[C@H]1CC[C@H](C(=O)O)CC1` displayed a melting point of 84 to 86 °C. With `CCCCCCCCCCCCCCCCCCOc1ccc([N+](=O)[O-])cc1[N+](=O)[O-]`, the melting point was in the range of 63.5 to 64 °C. For `CON=C(C)C(=NOC)C(C)=NOCc1ccccc1CON=CC(=O)OC` the value was 105 °C. In turn, `COC(=O)CC[C@@H](Cc1cn(CCCc2ccccc2)c2ccccc12)NC(=O)CCCCCCc1ccccc1` came in with a melting point of 79.4 to 81 °C. For `CN(Cc1cccc2c1C(=O)N(C1CCC(=O)NC1=O)C2=O)C(=O)NC1CCCCC1` (stereo not drawn) the value was 243 to 245 °C. Take `COc1ccc(C(=O)c2ccccc2-c2ccc(C#N)cc2)cc1`: the melting point fell in the range of 121 to 123 °C. On to `COc1cc(C(=O)O)ccc1S(=O)(=O)n1c(=O)n(C2CCCCC2)c2cc(OC3CCCC3)ccc21`, for which the melting point came to 245 °C. For `O=c1cc(Br)ccn1C1CC1` the value was 91 to 94 °C; for `CC1C=C(C(=O)C(C#N)C(=O)Nc2ccccc2)c2cccc3c2=C1C1=CN=NC=31` (stereo not drawn), 275 to 278 °C; for `CCCCc1nn(-c2ccc(C(F)(F)F)cn2)cc1C(=O)OCC`, 58 to 59 °C. In the case of `COC(=O)CSc1cc(=O)n(C)c(=O)n1C`, the melting point is 96 to 97.5 °C. For `CCC(C)(N=NC(C)(CC)NC(=O)NNC(C)(C)C)NC(=O)NNC(C)(C)C` (stereo not drawn) the value was 155 to 160 °C; for `CCOP(=O)(/C=C/c1ccc(C(=O)OC)cc1)OCC`, 60 to 65 °C.

Consider `N#Cc1ccc(C2(n3ccnc3)Cc3ccccc3C2)cc1`, for which the melting point fell in the range of 150 to 152 °C.

`C=CCOc1ccccc1S(N)(=O)=O` came in with a melting point of 104 to 105 °C. With `O=c1c(O)c(-c2ccc3c(c2)OC(c2ccccc2)(c2ccccc2)O3)oc2cc(O)cc(O)c12`, the melting point lay in the range of 239 to 240 °C.

The compound `COC(=O)C(=O)C1C(=O)C(=O)C(CCCCCCC(=O)O)C1=O` (stereo not drawn) came in with a melting point of 127 to 129 °C. As for `COC(=O)[C@@]1(C)Cc2c([nH]c3ccc(OC)cc23)[C@@H](c2cccc(O)c2)N1` (racemic), the figure is 175 to 177 °C. As for `COc1cc2c(c(C(C)(C)C)c1)OC(=O)C2`, the figure is 117 to 118 °C; as for `CCc1noc(-c2cc3c(cn2)[nH]c2ccc(N(C)C)cc23)n1`, 235 to 240 °C; as for `COc1ccc(-c2cc(=S)n(C)c(=O)n2C)cc1OC`, 146 to 148 °C.

Values taken from a melting point compilation (Tetko et al.; mined from patent text by program, amines drawn as free bases though some values may be those of a salt).
